In brackets after ≈: the same amount, converted by molar mass. Like-named read-outs stand apart in the source and are kept apart here. Some results are limits rather than exact numbers.

Data set [1] deals with CpCDPK1 (Cryptosporidium parvum (strain Iowa II), UniProt A3FQ16). The data set is described as follows: biochemical. It is filed as biochemical.
Data set [2] concerns the target SrcKD (Homo sapiens (Human), UniProt P12931). The data set can be described thus: Tyrosine kinase IC50, SrcKD. It is filed as biochemical.
Data set [3] deals with HckKD (Homo sapiens (Human), UniProt P08631). The data set can be described thus: Tyrosine kinase IC50, HckKD. It is filed as biochemical. The note with it: Table 9.
The target in data set [4] is PfCDPK1 (Plasmodium falciparum (isolate 3D7), UniProt P62344). The data set can be described thus: biochemical.
Data set [5] has as its target PfCDPK4 (Plasmodium falciparum (isolate 3D7), UniProt Q8IBS5). The data set can be described thus: biochemical.
Data set [6] addresses SRC (Homo sapiens (Human), UniProt P12931). The note with it: read-out: IC50 (μM) Src.
A short description of data set [7]: in vivo. The note with it: mouse, ip.
Data set [8] has as its target Src3D (Homo sapiens (Human), UniProt P12931). The data set can be described thus: biochemical.
Data set [9] relates to glioma derived (SF539). The data set is described as follows: Growth inhibition of human cell line SF539. The note with it: for GI50: read-out: GI50 (μM) SF539.
In data set [10] the test system is human promyelocytic leukemia (HL-60). The data set is described as follows: Growth inhibition of human cell line HL-60. The note with it: for GI50: read-out: GI50 (μM) HL60.
The test system of data set [11] is human lymphocyte (CRL8155). The data set can be described thus: Growth inhibition of human cell line CRL8155. The note with it: for GI50: read-out: GI50 (μM) CRL8155.
The subject of data set [12] is colorectal carcinoma (HC 2998). The data set is described as follows: Growth inhibition of human cell line HC 2998. The note with it: for GI50: read-out: GI50 (μM) HCC2998.
A short description of data set [13]: Blood levels after oral gavage dosing of mice (LC-MS). The note with it: for AUC / Cmax / Tmax: in vivo.
Data set [14] concerns human fibroblast. The data set can be described thus: Human fibroblast replication / cytotoxicity (Alamar blue). It is filed as cell-based. In general terms: The colour change of resazurin is a common sign of viable cells or microbes.
A short description of data set [15]: Solubility in buffers of various pH. It is filed as physicochemical. The note with it: buffer.
The test system of data set [16] is glioma derived (SF539). The note with it: human.
In data set [17] the target is Abl3D (Homo sapiens, UniProt P00519). The data set is described as follows: Tyrosine kinase IC50, Abl3D. It is filed as biochemical. The note with it: Table 9.
Data set [18] has as its target AblKD (Homo sapiens (Human), UniProt P00519). The data set can be described thus: Tyrosine kinase IC50, AblKD. It is filed as biochemical. The note with it: Table 9.
The test system of data set [19] is P. berghei expressing PfCDPK4-2x-myc. The data set can be described thus: Exflagellation in blood of treated mice infected with P. berghei expressing PfCDPK4-2x-myc. It is filed as in vivo, Plasmodium berghei.
Data set [20] deals with C. parvum. The data set is described as follows: Immunosuppressed (SCID-beige) mouse C. parvum model. The note with it: SCID-beige mice; oral gavage once a day, days 3-7 and 10-14; 29 and 150 at 50 mg/kg/day, Paromomycin 2 g/kg/day. It is filed as in vivo, Cryptosporidium parvum. The protocol:
Shown are mean of the parasite numbers detected in 25 mg of stool from each mouse, by qRT-PCR.

For data set [21] the following is noted: mouse, in vivo, ip, 50 mg/kg.
In data set [22] the test system is P. berghei expressing GFP. The data set is described as follows: P. berghei transmission from treated mice to A. stephensi.
The target in data set [23] is ABL (Homo sapiens (Human), UniProt P00519). It is filed as biochemical.
Where [24] appears, read: pH 6.5, aqueous buffer, read-out: Experimental Solubility pH 6.5.

What is called IC50 is the concentration that gives 50% inhibition. For orientation: EC50 means the concentration at which the effect is half-maximal. Lower therefore signals a more potent agent. What is called AUC is concentration integrated over time. Read a high AUC as high exposure. Usually Cmax stands for the maximum level reached in the sampled fluid or tissue. The Tmax is the time at which the peak concentration occurs. By GI50 is commonly meant the concentration that inhibits growth by half. For `COc1ccc2cc(-c3nn(C(C)C)c4ncnc(N)c34)ccc2c1` [Compound 7q, 1-isopropyl-3-(6-methoxynaphthalen-2-yl)-1H-pyrazolo[3,4-d]pyrimidin-4-amine], the IC50 in [1] (read-out: IC50 (μM) CpCDPK1) turned out to be 0.005 µM; in data set [2], 0.77 µM; in data set [3], 0.375 µM; in data set [6], 0.77 µM; in data set [8] it was 576 nM. Further, the concentration giving a half-maximal response (EC50) in data set [4] is 208 nM; in data set [5], 41.4 nM. Moreover, the AUC in [7] is 4.6 µM·h; in [13] (mouse, po), 35.3 µM·h. Besides, the Cmax in data set [7] amounted to 3800 nM; in data set [13] (mouse, po) it was 19700 nM. Moreover, the Tmax in data set [7] was 30 min; in data set [13] (mouse, po), 30 min. Further, the “Cell Toxicity SF539, % at 10 μM” value in [9] is less than 30% at 10 μM. The GI50 in data set [9], in [10], in data set [11] and in data set [12] was more than 10 µM each time. The “Cell Toxicity HL60, % at 10 μM” value in [10] was less than 30% at 10 μM. In addition, the “Cell Toxicity CRL8155, % at 10 μM” value in data set [11] was less than 30% at 10 μM. Besides, the “Cell Toxicity HCC2998, % at 10 μM” value in data set [12] is less than 30% at 10 μM.
One may read the solubility as the concentration that dissolves in the medium under given conditions. Consider `Nc1ncnc2c1c(-c1ccc3cc(OCc4ccccc4)ccc3c1)nn2CC1CCNCC1` [Compound 34, 3-(6-(benzyloxy)naphthalen-2-yl)-1-(piperidin-4-ylmethyl)-1H-pyrazolo[3,4-d]pyrimidin-4-amine], for which, in data set [14], the “Observed HFF Toxicity (T at concentration)” value was “T at 100 μM”. In data set [3], this molecule yielded a 50% inhibitory concentration (IC50) of 1.61 µM. Besides, the EC50 in data set [4] worked out at 27.2 nM; in data set [5], 30.2 nM. The solubility in data set [15] (setting [24]) amounted to 23 µM (≈ 10.7 µg/mL). Further, in data set [16], the “Cell Toxicity LD50 SF539” value turned out to be 6 µM. Also, the “Cell Toxicity SF539, % at 10 μM” value in data set [9] worked out at 104%. Also, the “Cell Toxicity HL60, % at 10 μM” value in [10] was less than 30% at 10 μM. The “Cell Toxicity CRL8155, % at 10 μM” value in data set [11] is less than 30% at 10 μM. Further, the “Cell Toxicity HCC2998, % at 10 μM” value in data set [12] came out at 30% at 10 μM.
Take `Nc1nc2ccc(C(=O)c3ccccc3)cc2[nH]1` [Compound 92]: the values for the IC50 in data set [2] (Table 9) and in data set [17] were more than 10 µM and approximately 10 µM, respectively.
As for `CCOc1ccc2cc(-c3nn(CC4CCNCC4)c4ncnc(N)c34)ccc2c1` [Compound 29, 3-(6-ethoxynaphthalen-2-yl)-1-(piperidin-4-ylmethyl)-1H-pyrazolo[3,4-d]pyrimidin-4-amine], the IC50 in [1] (Table 8, read-out: IC50 (μM) CpCDPK1) was 0.0035 µM; in [1] (read-out: Enzymatic Assay IC50 CpCDPK1), 0.001 µM; in data set [2] (Table 9), more than 20 µM; in data set [18] it was more than 20 µM; in [3], more than 10 µM. Moreover, in data set [4], the EC50 amounted to 353 nM. For the same molecule, in [19] (50 mg/kg i.p.), the “exflagellation 20 hours after dosing” value is recorded as “some exflagellation was observed”. Besides, the “exflagellation in blood samples from treated mice” value in data set [19] (50 mg/kg i.p., 30 minutes post-injection and up to 14 hours later) is recorded as “completely suppressed exflagellation”. The “exflagellation in treated mice” value in [19] (mice, 10 mg/kg i.p.) is recorded as “sufficient to block exflagellation”. In data set [19] (mice, 50 mg/kg i.p.), the “duration of complete suppression of exflagellation” value is 14 h. The solubility in data set [15] (aqueous buffer, pH 2.0, read-out: Experimental Solubility pH 2.0) was determined as 34 µM (≈ 13.7 µg/mL); in data set [15] (setting [24]) it was 47 µM (≈ 18.9 µg/mL); in [15] (pH 7.4, aqueous buffer, read-out: Experimental Solubility pH 7.4), 49 µM (≈ 19.7 µg/mL). In addition, the “parasite burden rebound after treatment” value in data set [20] is listed as “slowly”. Further, in [20], the “parasites in stool (qRT-PCR) at the end of treatment” value is given as “not detected”. The peak plasma concentration in data set [21] is 8.2 µM. The “plasma levels for 20 hours post-treatment” value in [21] was “exceeding 0.4 μM”. The AUC is 3.18 µM·h in data set [7] (10 mg/kg); 29.5 µM·h in [7] (50 mg/kg); 20 µM·h in data set [13] (mouse, po); 0.95 µM·h in data set [13] (mouse, po, 10 mg/kg); 5.18 µM·h in data set [13] (mouse, po, 50 mg/kg). Also, the Cmax in data set [7] (10 mg/kg) was 700 nM; in data set [7] (50 mg/kg), 8200 nM; in [13] (mouse, po), 6640 nM; in [13] (mouse, po, 10 mg/kg), 200 nM; in data set [13] (mouse, po, 50 mg/kg) it was 1100 nM. Moreover, the time to peak (Tmax) in [7] (10 mg/kg) is 30 min; in data set [7] (50 mg/kg), 30 min; in data set [13] (mouse, po), 120 min; in data set [13] (mouse, po, 10 mg/kg), 140 min; in data set [13] (mouse, po, 50 mg/kg), 160 min. Also, the concentration at 20 h in data set [7] (50 mg/kg) was found to be 410 nM. Further, the “Cell Toxicity SF539, % at 10 μM” value in data set [9] is recorded as less than 30% at 10 μM. Further, the “Cell Toxicity HL60, % at 10 μM” value in data set [10] is less than 30% at 10 μM. Further, in data set [11], the “Cell Toxicity CRL8155, % at 10 μM” value is on record as less than 30% at 10 μM. In addition, in data set [12], the “Cell Toxicity HCC2998, % at 10 μM” value was less than 30% at 10 μM. The “Blood level, First Peak” value in data set [13] (mice, 40 mg/kg oral gavage 3x daily for 4 days, 1 hr after first dose, mean±SD, N=3) is 50 ± 80 nM. In addition, in [13] (mice, 40 mg/kg oral gavage 3x daily for 4 days, 1 hr after third dose of d4, mean±SD, N=3), the “Blood level, Fourth D4 Peak” value stood at 6600 ± 1600 nM. Further, the “Blood level, First Trough” value in data set [13] (mice, 40 mg/kg oral gavage 3x daily for 4 days, 17 hours after dosing, beginning of d2, mean±SD, N=3) amounted to 0 ± 0 nM. This molecule showed a concentration at 17 h in data set [13] (mouse, blood, po, 40 mg/kg) of 0 nM. Further, the “formation of oocysts in A. stephensi fed on treated mice” value in data set [22] (mice treated i.p., Compound 29 at 10 mg/kg, mosquitoes fed 30 minutes after dosing) is recorded as “completely blocked the formation of oocysts”. Besides, in [22] (mice, 10 mg/kg i.p.), the “impact on asexual parasitaemia or gametocyte rates” value was “no impact”.
On to `Nc1ncnc2c1c(Cc1cccc3ccccc13)nn2CC1CCNCC1` [Compound 5h, 3-(naphthalen-1-ylmethyl)-1-(piperidin-4-ylmethyl)-1H-pyrazolo[3,4-d]pyrimidin-4-amine], for which the IC50 in data set [23] is more than 20 µM; in data set [2] (Table 9) it was more than 20 µM; in data set [18], more than 20 µM; in [3] it was more than 10 µM; in data set [6] it was more than 20 µM. For the same molecule, the EC50 in data set [5] came to 154 nM. The “Cell Toxicity SF539, % at 10 μM” value in data set [9] was less than 30% at 10 μM. The GI50 in [9] (human cell line SF539), in data set [10] (human cell line HL60), in [11] (human cell line CRL8155) and in data set [12] (human cell line HCC2998) was more than 10 µM each time. Moreover, in [10], the “Cell Toxicity HL60, % at 10 μM” value is on record as less than 30% at 10 μM. Besides, in data set [11], the “Cell Toxicity CRL8155, % at 10 μM” value was less than 30% at 10 μM. In addition, the “Cell Toxicity HCC2998, % at 10 μM” value in [12] is less than 30% at 10 μM.

For the origin of these results see patent US9765037B2, “Compositions and methods for treating toxoplasmosis, cryptosporidiosis, and other apicomplexan protozoan related diseases” (University of Washington Through its Center for …, priority 2010, dated 2017).
